Assay results taken from patent US20260235618A1, “MICROBEADS WITH RATIOMETRIC LANTHANIDE ENCODING FOR DRUG SCREENING” (CZ Biohub SF, LLC, priority 2022, published 2026).
Entries after “also recorded” stand apart in the source; their conditions may differ.

Target: Cdc20 (Homo sapiens, UniProt Q12834)
Assay: Multiplexed binding assay of Cdc20 to peptides on spectrally encoded beads, with and without small molecule (per-bead fluorescence of labeled antibody)
Settings: bead-bound D-Box peptides; per-bead fluorescence intensity of fluorescently-labeled antibody recognizing bound Cdc20; vs control without Apcin (FIG. 2)
Description: FIG. 2 provides data illustrating the effect of the small molecule Apcin on the binding between Cdc20 and different peptide sequences. Binding was quantified by measuring the per-bead fluorescence intensity of a fluorescently-labeled antibody that recognizes bound Cdc20. […] The control is the left bar for each of the peptides.
In one illustrative assay, a library of peptide-bound microbeads is generated by synthesizing binding site peptides directly on microbeads. Beads are pooled and then incubated with the protein of interest in the presence or absence of a modulator or candidate biding agent. The beads are then typically washed and the amount of signal from a label directly or indirectly attached to the protein of interest that is bound to each bead is determined. […]
For illustration, binding site peptides can be from proteins that are binding partners of any protein of interest, e.g., a signaling protein. […] In some embodiments, such a bead, or pool of such beads, is deposited in a compartment, e.g., a microwell plate such as a 96-well plate, with a signaling protein and a candidate agent to be evaluated, such as a small molecule. […] Use of multiple peptide sequences (e.g., for different binding sites or different affinities) can serve as an internal control and provide the ability to quantitatively assess a loss of signal without concerns regarding assay quality (e.g., FIG. 2). […]

Cdc20, sequence (Q12834 whole entry, species assumed): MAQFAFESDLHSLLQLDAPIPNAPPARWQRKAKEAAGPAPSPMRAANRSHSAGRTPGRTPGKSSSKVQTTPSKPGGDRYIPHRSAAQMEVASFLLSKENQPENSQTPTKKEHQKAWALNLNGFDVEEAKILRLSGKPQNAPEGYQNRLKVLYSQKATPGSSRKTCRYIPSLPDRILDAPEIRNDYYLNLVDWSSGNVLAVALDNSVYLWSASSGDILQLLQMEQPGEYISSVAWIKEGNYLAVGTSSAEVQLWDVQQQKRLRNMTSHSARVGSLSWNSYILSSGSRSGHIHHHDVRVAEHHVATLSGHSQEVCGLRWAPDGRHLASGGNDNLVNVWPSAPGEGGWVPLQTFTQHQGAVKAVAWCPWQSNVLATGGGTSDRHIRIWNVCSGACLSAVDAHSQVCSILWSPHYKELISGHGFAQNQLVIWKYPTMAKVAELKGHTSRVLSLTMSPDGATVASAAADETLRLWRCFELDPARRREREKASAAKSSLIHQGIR

Cc1ncc([N+](=O)[O-])n1CCOC(=O)NC(Nc1ncccn1)C(Cl)(Cl)Cl (stereo not shown) [Apcin]
Effect on binding between Cdc20 and D-Box-containing peptide sequences: blocks the binding site between Cdc20 and D-Box-containing sequences; also recorded: selectively prevented the binding of Cdc20 to D-Box-containing peptides
